Measured values reported in the NIST ThermoML archive (doi:10.1016/j.jct.2005.05.008).
± gives the expanded uncertainty stated by the source.

Assay: an = ratio of the nth substance listed, in mol/kg
Conditions: 101 kPa, Liquid, Vibrating tube method

C[N+](C)(C)C.[O-][Cl+3]([O-])([O-])[O-] [tetramethylammonium perchlorate] + CN(C)C=O
mass density (283.15 K, a1 = 0.01523): 958.937 ± 0.27 kg/m3 | mass density (283.15 K, a1 = 0.01902): 959.151 ± 0.27 kg/m3 | mass density (283.15 K, a1 = 0.02912): 959.718 ± 0.27 kg/m3 | mass density (283.15 K, a1 = 0.03309): 959.941 ± 0.27 kg/m3 | mass density (283.15 K, a1 = 0.03853): 960.244 ± 0.27 kg/m3 | mass density (283.15 K, a1 = 0.04774): 960.757 ± 0.27 kg/m3 | mass density (283.15 K, a1 = 0.05313): 961.055 ± 0.27 kg/m3 | mass density (283.15 K, a1 = 0.0674): 961.841 ± 0.27 kg/m3 | mass density (283.15 K, a1 = 0.08195): 962.642 ± 0.27 kg/m3 | mass density (283.15 K, a1 = 0.09648): 963.443 ± 0.27 kg/m3 | mass density (293.15 K, a1 = 0.01523): 949.438 ± 0.27 kg/m3 | mass density (293.15 K, a1 = 0.01902): 949.656 ± 0.27 kg/m3 | mass density (293.15 K, a1 = 0.02912): 950.233 ± 0.27 kg/m3 | mass density (293.15 K, a1 = 0.03309): 950.46 ± 0.27 kg/m3 | mass density (293.15 K, a1 = 0.03853): 950.768 ± 0.27 kg/m3 | mass density (293.15 K, a1 = 0.04774): 951.288 ± 0.27 kg/m3 | mass density (293.15 K, a1 = 0.05313): 951.59 ± 0.27 kg/m3 | mass density (293.15 K, a1 = 0.0674): 952.388 ± 0.27 kg/m3 | mass density (293.15 K, a1 = 0.08195): 953.2 ± 0.27 kg/m3 | mass density (293.15 K, a1 = 0.09648): 954.007 ± 0.27 kg/m3 | mass density (298.15 K, a1 = 0.01523): 944.682 ± 0.27 kg/m3 | mass density (298.15 K, a1 = 0.01902): 944.901 ± 0.27 kg/m3 | mass density (298.15 K, a1 = 0.02912): 945.481 ± 0.27 kg/m3 | mass density (298.15 K, a1 = 0.03309): 945.71 ± 0.27 kg/m3 | mass density (298.15 K, a1 = 0.03853): 946.019 ± 0.27 kg/m3 | mass density (298.15 K, a1 = 0.04774): 946.545 ± 0.27 kg/m3 | mass density (298.15 K, a1 = 0.05313): 946.848 ± 0.27 kg/m3 | mass density (298.15 K, a1 = 0.0674): 947.652 ± 0.27 kg/m3 | mass density (298.15 K, a1 = 0.08195): 948.469 ± 0.27 kg/m3 | mass density (298.15 K, a1 = 0.09648): 949.284 ± 0.27 kg/m3 | mass density (303.15 K, a1 = 0.01523): 939.914 ± 0.27 kg/m3 | mass density (303.15 K, a1 = 0.01902): 940.135 ± 0.27 kg/m3 | mass density (303.15 K, a1 = 0.02912): 940.72 ± 0.27 kg/m3 | mass density (303.15 K, a1 = 0.03309): 940.951 ± 0.27 kg/m3 | mass density (303.15 K, a1 = 0.03853): 941.262 ± 0.27 kg/m3 | mass density (303.15 K, a1 = 0.04774): 941.792 ± 0.27 kg/m3 | mass density (303.15 K, a1 = 0.05313): 942.097 ± 0.27 kg/m3 | mass density (303.15 K, a1 = 0.0674): 942.907 ± 0.27 kg/m3 | mass density (303.15 K, a1 = 0.08195): 943.731 ± 0.27 kg/m3 | mass density (303.15 K, a1 = 0.09648): 944.551 ± 0.27 kg/m3 | mass density (313.15 K, a1 = 0.01523): 930.347 ± 0.26 kg/m3 | mass density (313.15 K, a1 = 0.01902): 930.572 ± 0.26 kg/m3 | mass density (313.15 K, a1 = 0.02912): 931.168 ± 0.26 kg/m3 | mass density (313.15 K, a1 = 0.03309): 931.402 ± 0.26 kg/m3 | mass density (313.15 K, a1 = 0.03853): 931.719 ± 0.26 kg/m3 | mass density (313.15 K, a1 = 0.04774): 932.257 ± 0.26 kg/m3 | mass density (313.15 K, a1 = 0.05313): 932.568 ± 0.26 kg/m3 | mass density (313.15 K, a1 = 0.0674): 933.392 ± 0.26 kg/m3 | mass density (313.15 K, a1 = 0.08195): 934.229 ± 0.26 kg/m3 | mass density (313.15 K, a1 = 0.09648): 935.06 ± 0.27 kg/m3 | mass density (323.15 K, a1 = 0.01523): 920.732 ± 0.26 kg/m3 | mass density (323.15 K, a1 = 0.01902): 920.962 ± 0.26 kg/m3 | mass density (323.15 K, a1 = 0.02912): 921.569 ± 0.26 kg/m3 | mass density (323.15 K, a1 = 0.03309): 921.807 ± 0.26 kg/m3 | mass density (323.15 K, a1 = 0.03853): 922.13 ± 0.26 kg/m3 | mass density (323.15 K, a1 = 0.04774): 922.676 ± 0.26 kg/m3 | mass density (323.15 K, a1 = 0.05313): 922.995 ± 0.26 kg/m3 | mass density (323.15 K, a1 = 0.0674): 923.831 ± 0.26 kg/m3 | mass density (323.15 K, a1 = 0.08195): 924.679 ± 0.26 kg/m3 | mass density (323.15 K, a1 = 0.09648): 925.524 ± 0.26 kg/m3 | mass density (333.15 K, a1 = 0.01523): 911.066 ± 0.26 kg/m3 | mass density (333.15 K, a1 = 0.01902): 911.299 ± 0.26 kg/m3 | mass density (333.15 K, a1 = 0.02912): 911.916 ± 0.26 kg/m3 | mass density (333.15 K, a1 = 0.03309): 912.157 ± 0.26 kg/m3 | mass density (333.15 K, a1 = 0.03853): 912.486 ± 0.26 kg/m3 | mass density (333.15 K, a1 = 0.04774): 913.042 ± 0.26 kg/m3 | mass density (333.15 K, a1 = 0.05313): 913.365 ± 0.26 kg/m3 | mass density (333.15 K, a1 = 0.0674): 914.216 ± 0.26 kg/m3 | mass density (333.15 K, a1 = 0.08195): 915.082 ± 0.26 kg/m3 | mass density (333.15 K, a1 = 0.09648): 915.939 ± 0.26 kg/m3
